Measured values from US20220315534A1, “BETA ADRENERGIC AGONIST AND METHODS OF USING THE SAME” (Curasen Therapeutics, Inc., priority 2019, published 2022).

Assays:
[1] = molecular target: T1, β1-adrenergic receptor (B1-AR) (Homo sapiens, UniProt P08588); assay: cAMP Gs dynamic HTRF assay, cells expressing β1-adrenergic receptor; type: cell-based; conditions: CHO-K1 (HitHunter) cells; read-out: Average pEC50 [Receptor subtype: B1-AR; Cell type: CHO-K1 (HitHunter)] (converted)
T1 construct: expressed in transfected cells
Description: (§1) cAMP homogeneous time-resolved fluorescence (HTRF): experimental methods. Compound efficacy is determined using the cAMP Gs dynamic HTRF assay (Cisbio, catalog #62AM4PEC) largely following the manufacturer's instructions, also detailed below.
(§2) Standard serial dilution curves are 10-point, 5-fold dilutions starting from a highest concentration of 10 μM. […] Assay plates are centrifuged at 500×g for 10 seconds. Compounds and IBMX are prepared at 2× final dose to compensate for addition of cells.
(§3) Cell preparation: 1× stimulation buffer, washing PBS (Dulbecco's phosphate-buffered saline, —Mg —Ca; Caisson Labs, catalog #PBL01), assay PBS (Dulbecco's phosphate-buffered saline, +Mg, +Ca; Caisson Labs, catalog #PBL02) and Versene (0.02% EDTA disodium salt solution in PBS without calcium or magnesium; Caisson Labs, catalog #EDL01) are pre-warmed to 37° C. Cells expressing beta-adrenergic receptor were washed in washing PBS to remove growth medium and then released from the surface by incubating with Versene for 5-10 minutes at 37° C. Cells are harvested using assay PBS, counted manually by hemocytometer or by an automated cell counter, pelleted by centrifugation (200×g, 5 minutes) and resuspended in 37° C. 1× stimulation buffer to a final density of […]. 5 μL of the suspended cell solution (7500 cell total) are added to all wells of the 384 well assay plate, the assay plate was covered with an Axygen® plate seal (Corning PCR-SP) and incubated in a humidified 37° C. environment supplemented with 5% CO2 for 30 minutes.
(§4) HTRF reagent addition, reading and data analysis: After 30 minutes of cell stimulation with test compound, the assay plates are centrifuged at 500×g for 10 seconds, and incubation was stopped with the addition of 5 μL cAMP-D2 acceptor, diluted 1:21 in detection and lysis buffer 2 (Cisbio 62CL2FDF) was added to all cells. Subsequently, 5 μL Anti-cAMP-Eu Donor, diluted 1:21 in detection and lysis buffer 2, was added to cells. Plates were sealed and reactions gently ‘vortexed’ at 900 rpm on a Heidolph Titramax 1000 for at least 30 minutes at room temperature. Plates are centrifuged again at 500×g for 10 seconds, and HTRF was measured using a Tecan Spark plate reader at 50 flashes per well. […] Potency estimates (EC50 and pEC50) are derived from the four-parameter nonlinear regression of the concentration-effect curve and an estimate of relative efficacy is determined by comparing the magnitude of the test compound HTRF signal window (min-max dose) with the signal window of the full agonist control, isoproterenol.

[2] = molecular target: T2, β2-adrenergic receptor (B2-AR) (Homo sapiens, UniProt P07550); assay: cAMP Gs dynamic HTRF assay, cells expressing β2-adrenergic receptor; type: cell-based; conditions: CHO-K1 (HitHunter) cells; read-out: Average pEC50 [Receptor subtype: B2-AR; Cell type: CHO-K1 (HitHunter)] (converted)
T2 construct: expressed in transfected cells
Description: as §1, §2, §3, §4

T2 sequence (P07550 whole entry): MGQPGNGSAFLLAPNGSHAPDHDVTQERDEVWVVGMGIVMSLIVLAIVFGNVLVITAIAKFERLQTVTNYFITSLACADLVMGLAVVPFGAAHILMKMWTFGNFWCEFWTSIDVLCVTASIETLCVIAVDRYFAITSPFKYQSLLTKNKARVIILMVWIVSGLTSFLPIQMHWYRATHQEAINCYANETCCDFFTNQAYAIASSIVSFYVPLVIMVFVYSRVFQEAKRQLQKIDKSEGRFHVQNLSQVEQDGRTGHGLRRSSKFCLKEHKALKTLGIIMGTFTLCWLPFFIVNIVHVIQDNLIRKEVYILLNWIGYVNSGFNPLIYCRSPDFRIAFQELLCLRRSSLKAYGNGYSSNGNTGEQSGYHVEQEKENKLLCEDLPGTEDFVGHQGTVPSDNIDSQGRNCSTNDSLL
T1 sequence (P08588 whole entry): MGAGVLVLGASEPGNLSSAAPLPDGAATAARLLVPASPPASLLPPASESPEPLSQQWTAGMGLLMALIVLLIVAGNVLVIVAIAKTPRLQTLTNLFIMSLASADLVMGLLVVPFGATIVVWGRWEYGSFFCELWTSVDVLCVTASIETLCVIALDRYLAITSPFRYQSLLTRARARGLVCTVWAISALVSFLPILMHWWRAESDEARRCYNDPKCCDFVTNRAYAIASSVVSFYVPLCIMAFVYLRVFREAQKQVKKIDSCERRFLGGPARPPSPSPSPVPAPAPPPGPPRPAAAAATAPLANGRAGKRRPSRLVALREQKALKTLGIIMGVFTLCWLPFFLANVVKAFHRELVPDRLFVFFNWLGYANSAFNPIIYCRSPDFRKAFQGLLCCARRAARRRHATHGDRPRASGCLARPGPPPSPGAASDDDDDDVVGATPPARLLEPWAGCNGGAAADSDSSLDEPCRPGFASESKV

| SMILES | EC50 [1] | EC50 [2] |
| --- | --- | --- |
| CC(C)(C)NC[C@H](O)c1ccc(Cl)c2[nH]ncc12 [Compound 04-108] | < 0.01 µM | < 0.01 µM |
| CC(C)(C)NC[C@H](O)c1c(F)ccc2cccnc12 [Compound 04-90] | 0.1 to 1 µM | > 1 µM |
| CC(C)(C)NC[C@H](O)c1ccc(C(F)(F)F)c2cccnc12 [Compound 04-82] | < 0.01 µM | < 0.01 µM |
| CC(C)(C)NC[C@H](O)c1cccc2[nH]c3ccccc3c12 [Compound 04-57] | < 0.01 µM | < 0.01 µM |
| Cn1ncc2c([C@@H](O)CNC(C)(C)C)cccc21 [Compound 04-27] | < 0.01 µM | 0.01 to 0.1 µM |
| Cn1c(=O)ccc2c([C@H](O)CNC(C)(C)C)cccc21 [Compound 04-15] | > 1 µM | 0.1 to 1 µM |
| CC(C)(C)NC[C@H](O)c1ccc2c(n1)CCC2 [Compound 04-9] | 0.1 to 1 µM | 0.01 to 0.1 µM |
| CC(C)(C)NC[C@H](O)c1cccc2oc(=O)ccc12 [Compound 04-3] | > 1 µM | 0.1 to 1 µM |
| CC(C)(C)NC[C@@H](O)c1cccc2nccnc12 [Compound 04-74] | > 1 µM | > 1 µM |
| CC(C)CNC[C@H](O)c1ccc2nc[nH]c2c1 [Compound 04-140] | > 1 µM | 0.1 to 1 µM |
| CC(C)(C)NC[C@H](O)c1cccc2cccnc12 [Compound 04-94] | < 0.01 µM | < 0.01 µM |
| CC(C)(C)NC[C@H](O)c1ccnc2cccnc12 [Compound 04-73] | 0.01 to 0.1 µM | 0.01 to 0.1 µM |
| CC(C)(C)NC[C@H](O)c1ccc2ncccc2c1 [Compound 04-38] | 0.1 to 1 µM | < 0.01 µM |
| CC(C)(C)NC[C@H](O)c1ccc(F)c2cccnc12 [Compound 04-80] | < 0.01 µM | < 0.01 µM |
| Cn1c(=O)ccc2c([C@@H](O)CNC(C)(C)C)cccc21 [Compound 04-2] | 0.01 to 0.1 µM | < 0.01 µM |
| CC(C)(C)NC[C@H](O)c1cccc2c1C(F)(F)C(=O)N2 [Compound 04-158] | 0.01 to 0.1 µM | < 0.01 µM |

Continued, values first:

| EC50 [1] | EC50 [2] | SMILES |
| --- | --- | --- |
| > 1 µM | > 1 µM | CC(C)(C)NC[C@@H](O)c1cccc(O)n1 [Compound 02-8] |
| > 1 µM | 0.1 to 1 µM | Cc1ccc2[nH]ncc2c1[C@@H](O)CNC(C)(C)C [Compound 04-138] |
| 0.1 to 1 µM | > 1 µM | Cn1ncc2c([C@H](O)CNC(C)(C)C)cccc21 [Compound 04-28] |
| > 1 µM | > 1 µM | CC(C)(C)NC[C@H](O)c1ncc(O)c2ccccc12 [Compound 04-97] |
| > 1 µM | > 1 µM | CC(C)(C)NC[C@H](O)c1ccc2[nH]ncc2c1 [Compound 04-48] |
| < 0.01 µM | < 0.01 µM | CC(C)(C)NC[C@H](O)c1cccc2[nH]c(=O)ccc12 [Compound 04-1, (R)-5-(2-(tert-butylamino)-1-hydroxyethyl)quinolin-2(1H)-one] |
| > 1 µM | > 1 µM | CC(C)(C)NC[C@H](O)c1nccc2[nH]c(=O)ccc12 [Compound 04-5, (S)-5-(2-(tert-butylamino)-1-hydroxyethyl)-1,6-naphthyridin-2(1H)-one] |
| 0.01 to 0.1 µM | < 0.01 µM | CC(C)(C)NC[C@H](O)c1ccnc2[nH]c(=O)ccc12 [Compound 04-13] |
| > 1 µM | > 1 µM | Cc1nc2cc([C@@H](O)CNC(C)(C)C)ccc2[nH]1 [Compound 04-118] |
| < 0.01 µM | < 0.01 µM | CC1(NC[C@H](O)c2cc(F)cc3[nH]ncc23)CC1 [Compound 04-147] |
| > 1 µM | > 1 µM | Cc1noc2ccc([C@@H](O)CNC(C)(C)C)cc12 [Compound 04-51] |
| > 1 µM | > 1 µM | O[C@@H](CNC1(C(F)(F)F)CC1)c1cccc2cccnc12 [Compound 04-67] |
| > 1 µM | > 1 µM | O[C@H](CNC1(C(F)(F)F)CC1)c1cccc2cccnc12 [Compound 04-68] |
| > 1 µM | > 1 µM | Cn1ncc2cc([C@@H](O)CNC(C)(C)C)ccc21 [Compound 04-49] |
